The values that follow come from Sander's compilation of Henry's law constants.

A short description of the series: Henry solubility constant Hcp at 298.15 K (mol/(m3 Pa)).
Setting [1] is: reference: Murphy et al. (1983a).
Setting [2] is: reference: Charles and Destaillats (2005).
Setting [3] is: reference: Roberts and Pollien (1997).
Setting [4] is: reference: Kawamoto and Urano (1989).
Where [5] appears, read: reference: Hawthorne et al. (1985).

The structures appear in SMILES notation.

On to `Clc1ccc(-c2c(Cl)ccc(Cl)c2Cl)cc1Cl` [2,3,3',4',6-pentachlorobiphenyl], for which the “Henry solubility constant Hcp” value under setting [1] turned out to be 0.027. In the case of `Clc1cc(-c2ccc(Cl)c(Cl)c2Cl)cc(Cl)c1Cl` [2,3,3',4,4',5'-hexachlorobiphenyl], under setting [1], the “Henry solubility constant Hcp” value worked out at 0.017. Still for that read-out and setting: the result for `Clc1ccc(-c2cc(Cl)c(Cl)c(Cl)c2Cl)cc1Cl` [2,3,3',4,4',5-hexachlorobiphenyl] reads 0.011; that for `Clc1ccc(-c2c(Cl)cc(Cl)c(Cl)c2Cl)cc1Cl` [2,3,3',4,4',6-hexachlorobiphenyl], 0.015. As to `Brc1ccc(Oc2cc(Br)c(Br)c(Br)c2Br)cc1` [2,3,4,4',5-pentabromodiphenyl ether], under setting [2], the “Henry solubility constant Hcp” value was 0.88. `CSSSC` [2,3,4-trithiapentane]: the “Henry solubility constant Hcp” value by setting is: under setting [3], 0.021; (reference: Souchon et al. (2004)) 0.014. On to `Clc1cc2oc3cc(Cl)c(Cl)cc3c2cc1Cl` [2,3,7,8-tetrachlorodibenzofuran], for which the “Henry solubility constant Hcp” value (reference: Friesen et al. (1993)) was 0.59. On to `CCc1ncc(C)nc1CC` [2,3-diethyl-5-methylpyrazine], for which the “Henry solubility constant Hcp” value under setting [3] was determined as 0.81.

`CCC(=O)C(C)=O` [2,3-pentanedione]: the “Henry solubility constant Hcp” value (reference: Wu et al. (2022b)) worked out at 0.13. With `Clc1ccc(-c2cc(Cl)ccc2Cl)cc1` [2,4',5-trichlorobiphenyl], under setting [1], the “Henry solubility constant Hcp” value was 0.049.

Take `Brc1ccc(Oc2ccc(Br)cc2Br)cc1` [2,4,4'-tribromodiphenyl ether]: the “Henry solubility constant Hcp” value was determined as 0.18 (reference: Cetin and Odabasi (2005)); 0.12 under setting [2]; 0.16 (reference: Long et al. (2017)). As to `N#Cc1c(Cl)c(Cl)c(Cl)c(C#N)c1Cl` [2,4,5,6-tetrachloro-1,3-dicyanobenzene], the “Henry solubility constant Hcp” value under setting [4] came to 50. Turning to `Cc1cc(C)c(N)cc1C` [2,4,5-trimethylbenzenamine], where the note is “reference: Jayasinghe et al. (1992)”, the “Henry solubility constant Hcp” value was 3.9. For the molecule `O=[N+]([O-])c1ccc(Oc2c(Cl)cc(Cl)cc2Cl)cc1` [2,4,6-trichlorophenyl 4-nitrophenyl ether], the “Henry solubility constant Hcp” value under setting [4] is above 8.1. `Cc1ccc(Cl)cc1Cl` [2,4-dichloro-1-methylbenzene]: the “Henry solubility constant Hcp” value (reference: Brockbank et al. (2013)) stood at 0.0027. Regarding `Cc1ccnc(C)c1` [2,4-dimethylpyridine], under setting [5], the “Henry solubility constant Hcp” value is 0.99.

Consider `CC(C)CCC(C)C` [2,5-dimethylhexane], for which the “Henry solubility constant Hcp” value (reference: Dohányosová et al. (2004)) came out at 2.4e-06. `Cc1cnc(C)cn1` [2,5-dimethylpyrazine]: the “Henry solubility constant Hcp” value was found to be 5.5 (reference: Druaux et al. (1998)) and 7.1 (reference: Marin et al. (1999)). Regarding `N#Cc1c(Cl)cccc1Cl` [2,6-dichlorobenzenenitrile], where the note is “reference: Schoene and Steinhanses (1985)”, the “Henry solubility constant Hcp” value amounted to 0.48.

For `Cc1cncc(C)n1` [2,6-dimethylpyrazine], the “Henry solubility constant Hcp” value (reference: Chaintreau et al. (1995)) was 0.98.

Take `Cc1cccc(C)n1` [2,6-dimethylpyridine]: under setting [5], the “Henry solubility constant Hcp” value is 0.66. As to `CC1(C)C2CC3OC3(C)C1C2` (centres undefined) [2,7,7-trimethyl-3-oxatricyclo[4.1.1.0(2,4)]octane], the “Henry solubility constant Hcp” value (reference: Fichan et al. (1999)) was 0.023. Turning to `Clc1ccc2c(c1)Oc1ccc(Cl)cc1O2` [2,7-dichlorodibenzo-p-dioxin], the “Henry solubility constant Hcp” value (reference: Santl et al. (1994)) is 0.17. Consider `CC(N)CO` (centres undefined) [2-amino-1-propanol], for which the “Henry solubility constant Hcp” value (reference: Nguyen (2013)) was 1300. On the same count and under the same terms, for `CC(C)(N)CO` [2-amino-2-methyl-1-propanol] the value was 700. With `CCC(C)N` (centres undefined) [2-butanamine], the “Henry solubility constant Hcp” value (reference: Kish et al. (2013)) amounted to 0.4. Regarding `CCC(C)O` (centres undefined) [2-butanol], the “Henry solubility constant Hcp” value runs as follows: (reference: Butler et al. (1935)) 0.96; (reference: Snider and Dawson (1985)) 1.1. On to `CCCCOCCOC(C)=O` [2-butoxyethyl ethanoate], for which the “Henry solubility constant Hcp” value (reference: Kim et al. (2000)) was determined as 1.8. For the molecule `CCC(C)O[N+](=O)[O-]` (centres undefined) [2-butyl nitrate], the “Henry solubility constant Hcp” value by setting is: (reference: Hauff et al. (1998)) 0.0044; (reference: Luke et al. (1989)) 0.0063. With `FC(F)(F)CCl` [2-chloro-1,1,1-trifluoroethane], the “Henry solubility constant Hcp” value is, setting by setting: (reference: Maaßen (1995)) 0.00037; (reference: Reichl (1995)) 0.00041. On the same counts, the results for `FC(F)=CCl` [2-chloro-1,1-difluoroethene] are 0.00017 and 0.00017. On to `CC(C)(C)Cl` [2-chloro-2-methylpropane], for which, where the note is “reference: Clarke et al. (1962)”, the “Henry solubility constant Hcp” value worked out at 0.00016.

In the case of `Clc1ccccc1-c1ccccc1` [2-chlorobiphenyl], the “Henry solubility constant Hcp” value under setting [2] was determined as 0.03. Take `CCOC(C)(C)CC(C)(C)C` [2-ethoxy-2,4,4-trimethylpentane]: the “Henry solubility constant Hcp” value (reference: Haimi et al. (2006)) came out at 0.00077. Consider `CCOC(C)(C)CC` [2-ethoxy-2-methylbutane], for which, for the setting “reference: Haimi et al. (2006)”, the “Henry solubility constant Hcp” value amounted to 0.0048. Consider `CCCCC(CC)CO` (centres undefined) [2-ethyl-1-hexanol], for which, under “reference: Wu et al. (2022a)”, the “Henry solubility constant Hcp” value came out at 0.15.
